Read-outs that look alike come from different tables or passages of the source.
Biological target: T1, HDM2 (Homo sapiens, UniProt Q00987)
T1 construct: Thioredoxin (N); made in house; host or cells: E. coli strain BL21(DE3)Rosetta
Experiment: HDM2 FRET assay (inhibition of binding of FITC labeled p53-pocket peptide to HDM2)
Settings: read-out: FRET IC50
Method in brief: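 Signal is read as the 520/495 nm emission ratio and converted to percent inhibition; nonlinear sigmoidal regression yields IC50. The assay mixes HDM2 (0.5 nM), FITC-p53 peptide (3 nM) and Tb anti-His antibody (0.25 nM) at 0.1% DMSO.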

[1] = 0.5 nM HDM2 (residues 17 to 125), 3nM peptide, two hour incubation at room temperature

T1 sequence (Q00987 17-125): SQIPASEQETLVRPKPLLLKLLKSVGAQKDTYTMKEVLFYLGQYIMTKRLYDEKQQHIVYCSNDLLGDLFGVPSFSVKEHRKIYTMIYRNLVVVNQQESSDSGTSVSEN

## CC(C)c1ccnc(-c2nc3nc(CO)nc(N[C@H](C)C4CCC4)c3n2C[C@H]2CC[C@H](C)CC2)c1 [Example 12.34, (6-{[(1R)-1-cyclobutylethyl]amino}-7-[(trans-4-methylcyclohexyl)methyl]-8-[4-(1-methylethyl)pyridin-2-yl]-7H-purin-2-yl)methanol]
[1]
  IC50: 301 nM

## C=C(c1ccccc1)c1nc2nc(-c3noc(=O)[nH]3)nc(N[C@H](C)C3CCC3)c2n1C[C@H]1CC[C@H](C)CC1 [Example 21.13, 3-[6-{[(1R)-1-cyclobutylethyl]amino}-7-[(trans-4-methylcyclohexyl)methyl]-8-(1-phenylethenyl)-7H-purin-2-yl]-1,2,4-oxadiazol-5(4H)-one]
Table 21
  IC50: 1.9 nM

## C[C@H]1CC[C@H](Cn2c(N3CCOC[C@H]3c3ccccc3)nc3nc(-c4noc(=O)[nH]4)nc(N4CCCCC4C4CCC4)c32)CC1 (stereo partly drawn) [Example 11.82, 3-{6-(2-cyclobutylpiperidin-1-yl)-7-[(trans-4-methylcyclohexyl)methyl]-8-[(3R)-3-phenylmorpholin-4-yl]-7H -purin-2-yl}-1,2,4-oxadiazol-5(4H)-one]
Table 11
  IC50: 6.45 nM

## Cc1cccc(-c2nc(-c3n[nH]c(=O)o3)nc3nc(N4CCOC[C@@H]4C)n(C[C@H]4CC[C@H](C)CC4)c23)c1 [Example 16.37, 5-{7-[(trans-4-methylcyclohexyl)methyl]-8-[(3S)-3-methylmorpholin-4-yl]-6-(3-methylphenyl)-7H-purin-2-yl} -1,3,4-oxadiazol-2(3H)-one]
[1]
  IC50: 1000 nM

## C[C@@H](Nc1nc(-c2noc(=O)[nH]2)nc2nc(N(C)C3CCCC3)n(Cc3ccc(C(F)(F)F)cc3)c12)C1CCC1 [Example 9.82, 3-(6-{[(1R)-1-cyclobutylethyl]amino}-8-[cyclopentyl(methyl)amino]-7-[4-(trifluoromethyl)benzyl]-7H-purin-2-yl)-1,2,4-oxadiazol-5(4H)-one]
Table 9
  IC50: 13.7 nM

## C[C@H]1CC[C@H](Cn2c(C(=O)c3ccccc3)nc3nc(-c4noc(=O)[nH]4)nc(-c4cccc(Cl)c4)c32)CC1 [Example 23.43, 3-[6-(3-chlorophenyl)-7-[(trans-4-methylcyclohexyl)methyl]-8-(phenylcarbonyl)-7H-purin-2-yl]-1,2,4-oxadiazol-5(4H)-one]
Table 23
  IC50: 72.7 nM

## CC(C)c1ccnc(-c2nc3nc(C(=O)O)nc(OC(C)C4CCC4)c3n2Cc2ccc(C(F)(F)F)c(F)c2)c1 (racemic) [Example 17.7, 6-(1-cyclobutylethoxy)-7-[3-fluoro-4-(trifluoromethyl)benzyl]-8-[4-(propan-2-yl)pyridin-2-yl]-7H-purine-2-carboxylic acid]
[1]
  IC50: 15 nM

## C[C@H]1CC[C@H](Cn2c(C(O)C3CCOCC3)nc3nc(-c4noc(=O)[nH]4)nc(-c4cncc(Cl)c4)c32)CC1 (mixture of isomers) [Example 23.17, 3-{6-(5-chloropyridin-3-yl)-8-[hydroxy(tetrahydro-2H-pyran-4-yl)methyl]-7-[(trans-4-methylcyclohexyl)methyl] -7H-purin-2-yl}-1,2,4-oxadiazol-5(4H)-one]
Table 23
  IC50: 67.3 nM

## CC(C)c1ccnc(-c2nc3nc(-c4cnn[nH]4)nc(N[C@H](C)C4CCC4)c3n2Cc2ccc(C(F)(F)F)cc2)c1 [Example 12.3, N-[(1R)-1-cyclobutylethyl]-8-[4-(propan-2-yl)pyridin-2-yl]-2-(1H-1,2,3-triazol-5-yl)-7-[4-(trifluoromethyl)benzyl]-7H-purin-6-amine]
[1]
  IC50: 535 nM

## C[C@@H](Nc1nc(-c2noc(=O)[nH]2)nc2nc(C(=O)C3CCOCC3)n(C[C@H]3CC[C@H](C)CC3)c12)C1CCC1 [Example 22.31, 3-[6-{[(1R)-1-cyclobutylethyl]amino}-7-[(trans-4-methylcyclohexyl)methyl] -8-(tetrahydro-2H-pyran-4-ylcarbonyl)-7H-purin-2-yl]-1,2,4-oxadiazol-5(4H)-one]
Table 22
  IC50: 6.45 nM

## C[C@@H](Nc1nc(-c2noc(=O)[nH]2)nc2nc(N3CCCC3(C)C)n(Cc3ccc(C(F)(F)F)cc3)c12)C1CCC1 [Example 9.83, 3-(6-{[(1R)-1-cyclobutylethyl]amino}-8-(2,2-dimethylpyrrolidin-1-yl)-7-[4-(trifluoromethyl)benzyl]-7H-purin-2-yl)-1,2,4-oxadiazol-5(4H)-one]
Table 9
  IC50: 25.6 nM

## Cc1cccc(-c2nc3nc(C(=O)O)nc(N[C@H](C)C4CCCCC4)c3n2Cc2ccc(C(F)(F)F)cc2)c1 [Example 6.42, 6-{[(1R)-1-cyclohexylethyl]amino}-8-(3-methylphenyl)-7-[4-(trifluoromethyl)benzyl]-7H-purine-2-carboxylic acid]
Table 6
  IC50: 564 nM

## C[C@@H](Nc1nc(-c2noc(=O)[nH]2)nc2nc(N3CCN(S(C)(=O)=O)C[C@H]3c3ccccc3)n(C[C@H]3CC[C@H](C)CC3)c12)C1CCC1 [Example 17.13, 3-(6-{[(1R)-1-cyclobutylethyl]amino}-7-[(trans-4-methylcyclohexyl)methyl]-8-[(2R)-4-(methylsulfonyl)-2-phenylpiperazin-1-yl]-7H-purin-2-yl)-1,2,4-oxadiazol-5(4H)-one]
Table 17.2
  IC50: 1.86 nM

## C[C@@H](Nc1nc(-c2n[nH]c(=O)n2C)nc2nc(N3CCOC[C@H]3c3ccccc3)n(C[C@H]3CC[C@H](C)CC3)c12)C1CCC1 [Example 12.15, 5-(6-{[(1R)-1-cyclobutylethyl]amino}-7-[(trans-4-methylcyclohexyl)methyl]-8-[(3R)-3-phenylmorpholin-4-yl]-7H-purin-2-yl)-4-methyl-2,4-dihydro-3H-1,2,4-triazol-3-one]
[1]
  IC50: 14.5 nM

## C[C@@H](Nc1nc(C(=O)O)nc2nc(N3CCCc4ccccc43)n(Cc3ccc(C(F)(F)F)cc3)c12)C1CCC1 [Example 9.124, 6-{[(1R)-1-cyclobutylethyl]amino}-8-(3,4-dihydroquinolin-1(2H)-yl)-7-[4-(trifluoromethyl)benzyl]-7H-purine-2-carboxylic acid]
Table 9
  IC50: 10.4 nM

## C[C@@H](Nc1nc(-c2noc(=O)[nH]2)nc2nc(C(C)(O)c3cccnc3)n(C[C@H]3CC[C@H](C)CC3)c12)C1CCC1 (stereo partly drawn) [Example 22.40, 3-(6-{[(1R)-1-cyclobutylethyl]amino}-8-(1-hydroxy-1-pyridin-3-ylethyl)-7-[(trans-4-methylcyclohexyl)methyl] -7H-purin-2-yl)-1,2,4-oxadiazol-5(2H)-one]
Table 22
  IC50: 41.6 nM

## Cc1nonc1CN(C)c1nc2nc(-c3noc(=O)[nH]3)nc(N[C@H](C)C3CCC3)c2n1C[C@H]1CC[C@H](C)CC1 [Example 11.63, 3-(6-{[(1R)-1-cyclobutylethyl]amino}-7-[(trans-4-methylcyclohexyl)methyl]-8-{methyl[(4-methyl-1,2,5-oxadiazol-3-yl)methyl]amino}-7H-purin-2-yl)-1,2,4-oxadiazol-5(4H)-one]
Table 11
  IC50: 3.71 nM

## CN(Cc1ccccc1)c1nc2nc(-c3noc(=O)[nH]3)nc(-c3cccc(Cl)c3)c2n1C[C@H]1CC[C@H](C)CC1 [Example 16.56, 3-{8-[benzyl(methyl)amino]-6-(3-chlorophenyl)-7-[(trans-4-methylcyclohexyl)methyl]-7H-purin-2-yl}-1,2,4-oxadiazol-5(4H)-one]
[1]
  IC50: 42.9 nM

## C[C@@H](Nc1nc(-c2noc(=O)[nH]2)nc2nc(N3CCCCC3c3cccnc3)n(C[C@H]3CC[C@H](C)CC3)c12)C1CCC1 (single isomer, unassigned) [Example 11.49]
Table 11
  IC50: 2.43 nM

## CC(C)CN1CCC(CN(C)c2nc3nc(-c4noc(=O)[nH]4)nc(N[C@H](C)C4CCC4)c3n2Cc2ccc(C(F)(F)F)cc2)C1 (stereo partly drawn) [Example 9.108, 3-(6-{[(1R)-1-cyclobutylethyl]amino}-8-(methyl{[1-(2-methylpropyl)pyrrolidin-3-yl]methyl}amino)-7-[4-(trifluoromethyl)benzyl]-7H-purin-2-yl)-1,2,4-oxadiazol-5(4H)-one]
Table 9
  IC50: 144 nM

## C[C@@H](Nc1nc(-c2n[nH]c(=O)o2)nc2nc(C3(c4ccccc4)CCC3)n(C[C@H]3CC[C@H](C)CC3)c12)C1CCC1 [Example 20.10, 5-[6-{[(1R)-1-cyclobutylethyl]amino}-7-[(trans-4-methylcyclohexyl)methyl]-8-(1-phenylcyclobutyl)-7H-purin-2-yl]-1,3,4-oxadiazol-2(3H)-one]
Table 20
  IC50: 28.9 nM

## C[C@H](O)[C@H](Nc1nc2nc(-c3noc(=O)[nH]3)nc(-c3cccc(Cl)c3)c2n1C[C@H]1CC[C@H](C)CC1)c1ccccc1 [Example 16.8, 3-(6-(3-chlorophenyl)-8-(((1R,2S)-2-hydroxy-1-phenylpropyl)amino)-7-(((trans)-4-methylcyclohexyl)methyl)-7H-purin-2-yl)-1,2,4-oxadiazol-5(4H)-one]
[1]
  IC50: 1.49 nM

## C[C@@H](Nc1nc(C(=O)O)nc2nc(N3CCC3c3ccccc3)n(Cc3ccc(C(F)(F)F)cc3)c12)C1CCC1 (stereo partly drawn) [Example 9.54, 6-{[(1R)-1-cyclobutylethyl]amino}-8-(2-phenylazetidin-1-yl)-7-[4-(trifluoromethyl)benzyl]-7H-purine-2-carboxylic acid]
Table 9
  IC50: 23.9 nM

## C[C@@H](Nc1nc(-c2n[nH]c(=O)o2)nc2nc(N3CCOC[C@H]3c3ccccc3)n(C[C@H]3CC[C@H](C)CC3)c12)C1CCC1 [Example 11.55, 5-(6-{[(1R)-1-cyclobutylethyl]amino}-7-[(trans-4-methylcyclohexyl)methyl]-8-[(3R)-3-phenylmorpholin-4-yl]-7H-purin-2-yl)-1,3,4-oxadiazol-2(3H)-one]
Table 11
  IC50: 2.14 nM

## C[C@@H](Nc1nc(C(=O)O)nc2nc(N3CCOC[C@@H]3C)n(Cc3ccc(Cl)cc3)c12)C1CC1 [Example 9.28, 7-(4-chlorobenzyl)-6-{[(1R)-1-cyclopropylethyl]amino}-8-[(3S)-3-methylmorpholin-4-yl]-7H-purine-2-carboxylic acid]
Table 9
  IC50: 143 nM
